Measured values: patent US4816471A, “Substituted heterocyclic benzamides, methods of preparing them and their application as anti-emetics” (Societe d'Etudes Scientifiques et Industrielles de …, priority 1978, dated 1989)
Where a name gives a salt, the structure may show the parent alone.

Experiments:
[1] = system: chewing stereotypes induced by dexamphetamine; experiment: antagonism to chewing stereotypes induced by dexamphetamine in rats, Janssen's method; type: in vivo; settings: Table 5, dexamphetamine 10 mg/kg; for ED50: Rattus norvegicus, sc; for % antagonism to chewing stereotypes induced by dexamphetamine: s.c., at 100 mg/kg
Procedure: The compounds were also tested for antagonism to chewing stereotypes induced by dexamphetamine (10 mg/kg) in rats, by Janssen's method in Arzn. Forsch. 1961, 11, 932-938 under subcutaneous administration with the following results: […]

[2] = system: anti-emetic power relative to apomorphine in dogs; experiment: anti-emetic ED50 under oral administration (procedure of Example 29); type: in vivo; settings: Canis lupus familiaris, Table 2
Procedure: (§1) The pharmacodynamic tests on the compounds of this invention, and particularly a study of their anti-emetic power have shown strong activity on the nervous system as apomorphine antagonists. […] In accordance with the above-mentioned procedures, the compounds of the invention were administered subcutaneously 30 minutes before the administration of apomorphine, which was administered subcutaneously in a dose of 100 ug/kg.
Compounds SLC-036, 77205 and 77149 are disclosed in U.S. Pat. No. 4,172,143 for comparison purposes, as Examples 10, 33 and 37 therein. The results for those compounds are reported in Table IX of the '143 Patent and are believed to represent results from oral administration.
Pharmacological tests were carried out under oral administration to determine anti-emetic ED50 in accordance with the procedure of Example 29 with the following results: […]

[3] = acute toxicity in the mouse; settings: in vivo
Excerpt: The acute toxicity of the compounds of the invention has been studied in the mouse. The LD50 's are set out in the following Table 3. […] This characteristic is highly desirable because the possibility of toxic effects due to the administration of therapeutic doses is thereby minimized.

[4] = system: anti-emetic power relative to apomorphine in dogs; experiment: anti-emetic power relative to apomorphine in dogs by the method of Chen and Ensor (subcutaneous administration); type: in vivo; settings: Canis lupus familiaris, sc, Table 1, s.c. 30 minutes before apomorphine 100 ug/kg s.c.
Procedure: as §1

[5] = system: chewing stereotypes induced by apomorphine; experiment: antagonism to chewing stereotypes induced by apomorphine in rats, method of Janssen; type: in vivo; settings: Table 4, apomorphine 1.25 mg/kg; for ED50: Rattus norvegicus, sc; for % antagonism to chewing stereotypes induced by apomorphine: s.c., at 200
Procedure: The neurological activity of the compounds of the invention was compared to the activity of prior art compounds in U.S. Pat. No. 4,172,143 and with a standard in this field, Sulpiride, N-[(1-ethylpyrrolidinyl-2)methyl]-2-methoxy-5 sulphamoyl benzamide. The compounds were tested for antagonism to chewing stereotypes induced by apomorphine (1.25 mg/kg in rats, according to the method of Janssen in Arzn. Forsch. 1960-10, 1003-5, under subcutaneous administration and the results were as follows: […]

[6] = system: biting sterotypes induced by apomorphine; experiment: potentiation of biting sterotypes induced by apomorphine in mice, Pedeson's method; type: in vivo; settings: Table 6, apomorphine 10 mg/kg, interperitoneal; for ED50: Mus musculus, ip
Procedure: The compounds were also tested for potentiation of biting sterotypes induced by apomorphine (10 (mg/kg) in mice, under interperitoneal administration in accordance with Pedeson's method in Brit J. Pharmacol. 1968, 34 (1), 219-220 with the following results: […]

[7] = system: stereotypes induced by apomorphine; experiment: potentiation of stereotypes induced by apomorphine in rats; type: in vivo; settings: Table 7, apomorphine 0.25 mg/kg, intraperitoneal
Procedure: The compound of Example 2 was tested against sulpiride for potentiation of stereotypes induced by apomorphine (0.25 mg/kg) in rats under intraperitoneal administration with the following results: […]

[8] = system: anti-emetic power relative to apomorphine in dogs; settings: cited from earlier work; for ED50 (Prior Art Compounds, Results Reported in U.S. Pat No. 4,172,143): Table 1, method of administration believed oral; for ED50 (oral): Table 2, prior art compounds, same values as reported in U.S. Pat. No. 4,172,143
solubility in water = type: physicochemical; settings: crystals, base

| Compound | ED50 [1] | LD50 ([3]; I.V. (intravenous)) | LD50 ([3]; P.O. (oral)) | LD50 ([3]; ip, I.P. (intraperitoneal)) | LD50 ([3]; sc, S.C. (subcutaneous)) | ED50 [4] | ED50 [5] | further results |
| --- | --- | --- | --- | --- | --- | --- | --- | --- |
| COc1ccc(S(N)(=O)=O)cc1C(=O)NCC1CCCN1CC1=CCCCC1 (centres unmarked) [Example 14, N-[1(1-cyclohexenylmethyl) 2-pyrrolidinylmethyl]2-methoxy 5-sulphamoyl benzamide] | 10 mg/kg | 82.5 to 85.5 mg/kg | 525 to 542 mg/kg | 294 to 317 mg/kg | 630 to 640 mg/kg | 0.00085 mg/kg | 16.4 mg/kg | ED50 [2]: 0.0012 mg/kg |
| CNS(=O)(=O)c1ccc(OC)c(C(=O)NCC2CCCN2CC2=CCCCCC2)c1 (centres unmarked) [Example 13, N-(1-cycloheptenylmethyl 2-pyrrolidinylmethyl) 2-methoxy 5-methylsulphamoylbenzamide] | 0.54 mg/kg | 45.5 to 48 mg/kg | 312 to 330 mg/kg | 128 to 140 mg/kg | 322 to 336 mg/kg | 0.0005 mg/kg | 1.5 mg/kg |  |
| CCN1CCCC1CNC(=O)c1cc(S(N)(=O)=O)ccc1OC (centres unmarked) [Sulpiride, N-[(1-ethylpyrrolidinyl-2)methyl]-2-methoxy-5 sulphamoyl benzamide, reference compound] |  |  |  |  |  |  |  | % potentiation of biting sterotypes induced by apomorphine ([6]; at 4 mg/kg): 12%; % antagonism to chewing stereotypes induced by dexamphetamine [1]: 0%; % potentiation of stereotypes induced by apomorphine ([7]; at 8 mg/kg): 30%; % antagonism to chewing stereotypes induced by apomorphine [5]: 0% |
| CCS(=O)(=O)c1cc(C(=O)NCC2CCCN2CC2=CCCCC2)c(OC)cc1N (centres unmarked) [Example 11, N-[1-(1-cyclohexenylmethyl)-2-pyrrolidinylmethyl]-2-methoxy 4-amino 5-ethylsulphonyl benzamide, phosphate] | 5.4 mg/kg | 29.5 to 31.8 mg/kg | 510 to 555 mg/kg | 180 to 181 mg/kg | 343 to 360 mg/kg | 0.00057 mg/kg | 13.7 mg/kg |  |
| CNS(=O)(=O)c1cc(OC)c(OC)c(C(=O)NCC2CCCN2CC2CC2)c1 (centres unmarked) [Example 5, N-(1-cyclopropylmethyl 2-pyrrolidinylmethyl)-2,3-dimethoxy 5-methylsulphamoyl benzamide] |  |  |  |  |  | 0.0005 mg/kg |  |  |
| CNS(=O)(=O)c1ccc(OC)c(C(=O)NCC2CCCN2CC2=CCCCC2)c1 (centres unmarked) [Example 15, N-(1-cyclohexenylmethyl 2-pyrrolidinylmethyl) 2-methoxy 5-methylsulphamoyl benzamide] | 0.78 mg/kg | 44.2 to 46.5 mg/kg | 540 to 558 mg/kg | 204 to 208 mg/kg | 462 to 494 mg/kg | 0.00021 mg/kg | 1.22 mg/kg | ED50 [2]: 0.0011 mg/kg |
| COc1cc2[nH]nnc2cc1C(=O)NCC1CCCN1CC1=CCCCC1 (centres unmarked) [Example 22, N-(1-cyclohexenylmethyl 2-pyrrolidinylmethyl) 2-methoxy 4,5-azimido benzamide] |  |  |  |  |  | 0.002 mg/kg |  |  |
| CCS(=O)(=O)c1cc(C(=O)NCC2CCCN2CC2CCCCC2)c(OC)cc1N (centres unmarked) [Example 8, N-(1-cyclohexylmethyl-2-pyrrolidinyl-methyl)-2-methoxy-4-amino-5-ethylsulphonyl-benzamide] | 15.4 mg/kg | 37 to 40.8 mg/kg | 348 to 380 mg/kg | 133 to 145 mg/kg | 336 to 342 mg/kg | 0.002 mg/kg | 33 mg/kg |  |
| CCS(=O)(=O)c1cc(C(=O)NCC2CCCN2CC2=CCCC2)c(OC)cc1N (centres unmarked) [Example 10, N-(1-cyclopentenylmethyl 2-pyrrolidinylmethyl)-2-methoxy 4-amino 5-ethylsulphonyl benzamide] | 14 mg/kg | 41.8 to 42 mg/kg | 980 to 990 mg/kg | 204 to 212 mg/kg | 330 to 360 mg/kg | 0.0013 mg/kg |  |  |
| CC[S+]([O-])c1cc(C(=O)NCC2CCCN2CC2CC2)c(OC)cc1N (centres unmarked) [Example 1, N-(1-cyclopropylmethyl 2-pyrrolidinylmethyl)-2-methoxy 4-amino 5-ethylsulphinyl benzamide] |  |  |  |  |  | 0.0007 mg/kg |  |  |
| COc1ccc(S(N)(=O)=O)cc1C(=O)NCC1CCCN1CC1CCCCC1 (centres unmarked) [Example 77205, N--(1cyclohexylmethyl 2pyrrolidinylmethyl)-2-methoxy-5-sulphamoyl benzamide, reference compound] | 19 mg/kg |  |  |  |  |  |  | ED50 (Prior Art Compounds, Results Reported in U.S. Pat No. 4,172,143) [8]: 0.014 mg/kg; ED50 (oral) [8]: 0.014 mg/kg; % antagonism to chewing stereotypes induced by apomorphine [5]: 20% |
| COc1cc(S(N)(=O)=O)cc(C(=O)NCC2CCCN2CC2CC2)c1OC (centres unmarked) [Example 4, N-(1-cyclopropylmethyl-2-pyrrolidinylmethyl)-2,3-dimethoxy-5-sulphamoyl benzamide] |  | 60 to 64.5 mg/kg | 2280 mg/kg | 372 to 403 mg/kg | 930 mg/kg | 0.0022 mg/kg |  | solubility in water (solubility in water): insoluble |
| CCS(=O)(=O)c1cc(OC)c(OC)c(C(=O)NCC2CCCN2CC2CC2)c1 (centres unmarked) [Example 16, N-(1-cyclopropylmethyl 2-pyrrolidinylmethyl) 2,3-dimethoxy 5-ethylsulphonylbenzamide, hydrochloride] | 1.34 mg/kg | 92.9 to 97.2 mg/kg | 588 to 598 mg/kg | 303 to 338 mg/kg | 595 to 597 mg/kg |  | 3.2 mg/kg | ED50 [6]: 0.25 mg/kg; ED50 [2]: 0.00023 mg/kg |
| COc1cc(S(N)(=O)=O)cc(C(=O)NCC2CCCN2CC2=CCCCC2)c1OC (centres unmarked) [Example 6, N-(1-cyclohexenyl-methyl-2-pyrrolidylmethyl)-2,3-dimethoxy 5-sulphamoyl benzamide] |  |  |  |  |  | 0.0028 mg/kg | 40 mg/kg | ED50 [6]: 2.6 mg/kg; mortality ([3]; ip, I.P., at 240 mg/kg, read-out: 60% at 240 mg/kg (acute toxicity)): 60% |
| CNS(=O)(=O)c1cc(C(=O)NCC2CCCN2CC2CC2)c(OC)cc1N (centres unmarked) [Example 3, N-(1-cyclopropylmethyl 2-pyrrolidinylmethyl)-2-methoxy 4-amino 5-methylsulphamoyl benzamide] |  |  |  |  |  | 0.0004 mg/kg |  |  |
| CNS(=O)(=O)c1cc(OC)c(OC)c(C(=O)NCC2CCCN2CC2=CCCCC2)c1 (centres unmarked) [Example 12, N-(1-cyclohexenylmethyl 2-pyrrolidinylmethyl) 2,3-dimethoxy 5-methylsulphamoyl benzamide] | 1.5 mg/kg | 57.8 to 62 mg/kg | 540 to 560 mg/kg | 198 to 200 mg/kg | 297 to 319 mg/kg | 0.00115 mg/kg | 4 mg/kg | ED50 [6]: 0.33 mg/kg |
| COc1ccc(S(=O)(=O)N(C)C)cc1C(=O)NCC1CCCN1CC1CC1 (centres unmarked) [Example 77149, N--(1cyclopropylmethyl 2pyrrolidinylmethyl)-2-methoxy-5-dimethylsulphamoyl benzamide] |  |  |  |  |  |  |  | ED50 (Prior Art Compounds, Results Reported in U.S. Pat No. 4,172,143) [8]: 0.04 mg/kg; ED50 (oral) [8]: 0.04 mg/kg |
| COc1ccc(S(N)(=O)=O)cc1C(=O)NCC1CCCN1CC1CC1 (centres unmarked) [SLC-036, N--(1cyclopropylmethyl 2pyrrolidinylmethyl)-2-methoxy-5-sulphamoyl benzamide, reference compound] |  |  |  |  |  |  |  | % antagonism to chewing stereotypes induced by dexamphetamine [1]: 0%; ED50 (Prior Art Compounds, Results Reported in U.S. Pat No. 4,172,143) [8]: 0.037 mg/kg; ED50 (oral) [8]: 0.037 mg/kg; % antagonism to chewing stereotypes induced by apomorphine [5]: 0% |
| CCS(=O)(=O)c1cc(C(=O)NCC2CCCN2CC2CC2)c(OC)cc1N (centres unmarked) [Example 2, N-(1-cyclopropyl-methyl-2-pyrrolidinyl-methyl)-2-methoxy-4-amino-5-ethylsulphonyl-benzamide] |  | 52.5 to 54.6 mg/kg | 1260 to 1320 mg/kg | 204 to 220 mg/kg | 380 to 396 mg/kg | 0.0004 mg/kg |  | ED50 [6]: 1.6 mg/kg; ED50 [2]: 0.0009 mg/kg; ED50 ([7]; Rattus norvegicus, ip): 2.4 mg/kg |
